From US20240173333A1, “Treating Alagille Syndrome (ALGS)” (priority 2022, published 2024)
Converted amounts (≈) assume the structure as drawn. “Also recorded” adds a separate entry of the source. Marks after values point to notes of the source that are not given here.

Key:
[1] = system: patients with Alagille syndrome (ALGS); assay: ASSERT: fat-soluble vitamin levels, INR and related TEAEs; type: in vivo, human
Protocol: Vitamins A, D, E, and international normalized ratio (INR; surrogate for vitamin K) were measured throughout the study. Vitamins A, D, and E were measured at screening and randomization, week 12, and week 24. International normalized ratio (INR; surrogate for vitamin K) was measured at all visits. The following measures were determined: (i) percentage of patients with FSV insufficiency at baseline and week 24, and (ii) shifts from baseline to high or low post-baseline FSV values relative to normal ranges. Treatment-emergent adverse events (TEAEs) of FSV deficiency, TEAEs resulting from new or worsening FSV deficiency refractory to clinically recommended vitamin supplementation, and TEAEs represented any possible sequelae of FSV deficiency were evaluated.

Solubility in water = type: physicochemical; details: pH 7, 37° C.
Source text: It is desirable that the use of organic solvents in the preparation of the formulation is avoided. In some embodiments, water is used as the solvent for the preparation of the formulation. […] Because of this low solubility in water, aqueous suspensions of odevixibat can contain larger agglomerates of odevixibat, which may lead to an uneven distribution of the active pharmaceutical ingredient on the cores, i.e., the cores may contain different amounts of odevixibat, which in turn impacts dose uniformity. Accordingly, in some embodiments, the aqueous suspension of odevixibat is homogeneous. In some embodiments, a homogeneous aqueous suspension of odevixibat is sprayed onto the cores.

[2] = system: patients with Alagille syndrome (ALGS); assay: ASSERT: ObsRO sleep parameters and daytime tiredness; type: in vivo, human
Source text: […] Additional secondary efficacy endpoints were as follows: • Change from baseline in pruritus to Month 6 (Weeks 21 to 24) as measured by the Albireo PRO instrument. • Percentage of patients achieving a clinically meaningful decrease in pruritus (pruritis responders) as measured by the ObsRO/PRO instruments. • Change from baseline through Week 24 in patient reported and observer reported itching and scratching severity scores, respectively, for the morning assessment and for the evening assessment; sleep parameters as measured with the Albireo ObsRO/PRO instruments (e.g., tiredness and number of awakenings); and PedsQL subdomain scores. • Assessment of Global Symptom Relief to from baseline to Weeks 4, 12, and 24 as measured by patient, caregiver, and clinician Global Impression of Symptoms GIS (PGIS, CaGIS, CGIS) items. • Change from baseline to Week 24 in xanthomatosis as assessed by the Clinician Xanthoma Scale; serum bile acid levels; serum ALT concentration; and serum AST concentration; gamma-glutamyl transferase concentration; total bilirubin concentration. • Change from baseline in biochemical markers and measures of bile acid synthesis (autotaxin, p-C4, only in patients >10 kg); and total cholesterol concentration.
Itching, Scratching, and Sleep Parameters. Itching, observed scratching, and sleep disturbance were recorded twice each day via eDiary. Patients and/or caregivers were instructed to complete the eDiary every day in the morning after the patient woke and in the evening just before the patient went to sleep throughout the study. The eDiary included ObsRO and PRO items. The PRO items assessed severity of itch, aspects of sleep disturbance (morning diary only), and tiredness. The ObsRO items assessed severity of observed scratching, aspects of observed sleep disturbance (morning diary only), and signs of tiredness (evening diary only). The ObsRO and PRO scratching and itch severity items used 0 to 4 response scales.

[3] = system: patients with Alagille syndrome (ALGS); assay: ASSERT-EXT open-label extension: safety, TEAEs; type: in vivo, human
Protocol: ASSERT-EXT is a Phase 3, multi-center, open-label extension study designed to evaluate the long-term safety and efficacy of 120 μg/kg/day odevixibat in relieving pruritus in patients with ALGS. Patients who participated in the ASSERT trial (see Example 1) and met eligibility criteria for the ASSERT trial were eligible to participate. The duration of the treatment period is 72 weeks, followed by a 4-week Safety Follow-up Period. Clinic visits occur every 4 to 12 weeks. Patients who wish to continue receiving odevixibat after 72 weeks will have the opportunity to remain on treatment in an optional extension period with visits every 16 weeks until the drug is commercially available, provided continued use is supported by the risk-benefit profile, the patient has not been previously withdrawn or discontinued from the study, and the study is not terminated by the Sponsor. The 4-week Safety Follow-up Period will not occur for those who remain on treatment in the optional extension period.
Day 1 coincided with Week 24 in the ASSERT trial; however, if this was not possible due to logistic issues, patients enrolled in the ASSERT-EXT trial within 28 days of completion of the ASSERT trial. All patients in the ASSERT-EXT trial receive odevixibat 120 μg/kg/day. Two groups were analyzed up to an interim cut-off date of Sep. 9, 2022: treatment-naïve patients who received placebo in ASSERT (i.e., “placebo-odevixibat”) and patients who received odevixibat in ASSERT (i.e., “odevixibat-odevixibat”).
Safety Analysis. The primary safety analysis for this study included the incidence of total treatment emergent AEs (TEAEs) and TEAEs categorized by causality, severity, and seriousness assessments made by the investigator. Trends in safety were also evaluated for the following assessments: Physical examinations; Concomitant medications; Vital signs; Laboratory test results (including clinical chemistry, hematology, urinalysis, AFP, vitamins A, E, and 25-hydroxy vitamin D, and INR); Liver ultrasound and elastography (where available); and Discontinuations due to Aes.

[4] = weeks 21-24, caregiver-reported

CCCCC1(CCCC)CN(c2ccccc2)c2cc(SC)c(OCC(=O)N[C@@H](C(=O)N[C@@H](CC)C(=O)O)c3ccc(O)cc3)cc2S(=O)(=O)N1 [odevixibat, 1,1-dioxo-3,3-dibutyl-5-phenyl-7-methylthio-8-(N-{(R)-α-[N-((S)-1-carboxypropyl)carbamoyl]-4-hydroxybenzyl}carbamoylmethoxy)-2,3,4,5-tetrahydro-1,2,5-benzothiadiazepine]
shifts to low levels of vitamin E in patients with normal or high baseline levels ([1]; 4/29): 14%
shifts to low vitamin D levels in patients with normal or high baseline levels ([1]; 8/16): 50%
shifts from low or normal INR at baseline to high INR (low vitamin K) ([1]; 12/30): 40%
TEAE related to FSV levels: decreased vitamin A ([1]; 24 weeks): 1 n
TEAE related to FSV levels: decreased vitamin E ([1]; 24 weeks): 1 n
TEAE related to FSV levels: increased INR ([1]; 24 weeks): 1 n
incidence of INR increased (possible sequela of FSV deficiency) ([1]; 24 weeks): 3%
incidence of haematoma (possible sequela of FSV deficiency) ([1]; 24 weeks): 9%
patients shifted to high INR based on the normal range ([1]; 24 weeks): 12 patients
patients who shifted to high post-baseline INR and had TEAEs of potential sequelae of vitamin K deficiency ([1]; 24 weeks): 2 n
patients with clinically meaningful INR shifts (INR >1.2) ([1]; 24 weeks): 6 patients
shifts to low vitamin D levels ([1]; 24 weeks): 8 patients
shifts to low vitamin E levels ([1]; 24 weeks): 4 patients
incidence of possible sequelae of fat-soluble vitamin deficiency ([1]; 24 weeks, n=35): 14%
patients with TEAEs related to FSV levels (any FSV deficiency-related TEAE) ([1]; 24 weeks, n=35): 9%
fat-soluble vitamin deficiency TEAE refractory to clinically recommended vitamin supplementation ([1]; 24 weeks, vitamin D deficiency): 1 patients
changes from baseline in mean vitamin (FSV) levels or INR ([1]; baseline to last assessment): No clinically meaningful changes; also recorded: no clinically relevant changes
Vitamin A, shifts to low ([1]; baseline to lowest post-baseline value): 0/34
patients shifted to low levels of vitamin A ([1]; during the study): No patients
Any FSV deficiency-related TEAE ([1]; n=35): 3 (9)^a n (%)
Any potential sequelae events ([1]; n=35): 5 (14) n (%)
FSV deficiency-related TEAE: INR increased ([1]; n=35): 1 (3) n (%)
FSV deficiency-related TEAE: Vitamin A decreased ([1]; n=35): 1 (3) n (%)
FSV deficiency-related TEAE: Vitamin E decreased ([1]; n=35): 1 (3) n (%)
Potential sequelae: Coagulopathy ([1]; n=35): 1 (3) n (%)
Potential sequelae: Contusion ([1]; n=35): 1 (3) n (%)
Potential sequelae: Epistaxis ([1]; n=35): 0 n (%)
Potential sequelae: Hematemesis ([1]; n=35): 1 (3) n (%)
Potential sequelae: Hematoma ([1]; n=35): 3 (9) n (%)
Potential sequelae: INR increased ([1]; n=35): 1 (3) n (%)
FSV deficiency-related TEAE: Vitamin D deficiency ([1]; n=35, refractory to supplementation): 1 (3)^b n (%)
patients with FSV deficiency TEAE refractory to clinically recommended vitamin supplementation ([1]; of 35 patients): 3%
solubility (Solubility in water): ~30 µg/mL (≈ 40.5 µM)
mean reduction from baseline in daytime tiredness (5-point scale 0-4) ([2]; baseline to weeks 21 to 24, caregiver-rated): −1.1
LS mean change from baseline, percent of days sleeping with caregiver [2, 4]: −35%
LS mean change from baseline, percent of days with help falling asleep [2, 4]: −43%
LS mean change from baseline, percent of days with soothing [2, 4]: −47%
Serious TEAEs ([3]; 2/49 patients, interim cut-off): 4%
drug-related serious TEAEs or TEAEs leading to discontinuation or dose reduction ([3]; interim cut-off): No drug-related serious TEAEs or TEAEs leading to discontinuation or dose reduction
incidence of drug-related diarrhea ([3]; n=49, interim cut-off): 4%
incidence of treatment-emergent diarrhea ([3]; n=49, interim cut-off): 16%
tolerability ([3]; treatment for ≥24 weeks): well tolerated
